Measured values as given in US8461305B2, “L-fucose α1→6 specific lectin” (J-Oil Mills, Inc., priority 2008, dated 2013).

Assay: frontal affinity chromatography (FAC), association constant to PA sugar chains having α1→6 L-fucose
Assay type: binding
Details: 25 degrees C.
Description: The following section will describe a method of calculating an association constant by frontal affinity chromatography (FAC). This method is based on the following principle. […] Then, the elution front end (front) is observed immediately. When there is an affinity with lectin, the elution of the sugar chain is delayed.
The preparation of a lectin column used in the apparatus is performed in the method as described below. 1. Purified lectin is dissolved in 0.1 to 0.2M of NaHCO3 buffer solution (pH 8.3 to 8.5). 2. The lectin is immobilized, via a lectin primary amino group, a carrier such as NHS activated sepharose. 3. Then, the lectin is blocked by Tris buffer solution including primary amine or ethanolamine for example. 4. Lectin-sepharose is suspended in 10 mM Tris buffer, including 0.8% of NaCl (pH 7.4, TBS). Then, lectin immobilized resin is filled in a miniature column (φ2 mm×10 mm, 31.4 μl). 5. The miniature column in which the lectin immobilized resin is filled is protected by a holder and the lectin column is connected to an FAC automatic analysis apparatus (FAC-1, SHIMADZU CORPORATION).
Then, the elution of the PA sugar chain from the column is detected by a fluorescence detector (excitation wavelength/fluorescence wavelength: 310 nm/380 nm).
Based on the detection data, by using the elution front end (Vo) of the sugar chain (PA rhamnose) not interacting with lectin as a reference, the delay (V−Vo) of the elution front end (V) of a sugar chain interacting with lectin is calculated as an interaction strength. Then, based on the following FAC criteria expressions, the association constant (Ka) between the sugar chain and lectin is calculated based on V−Vo and Bt. If the interaction strength (V−Vo value) and the association constant are higher, a higher affinity is caused between lectin and an L-fucose α1→6 sugar chain.
[In the formula, A means substance used for the elution, Ao means the initial concentration of the substance A, B means a immobilized ligand, V means the elution volume, Vo means the elution front end volume of the substance not interacting with the immobilized ligand B at all, Bt means an effective ligand amount, Kd means a dissociation constant (an inverse of the association constant)].
Pyridylaminated (PA) sugar chains shown in FIG. 1 and FIG. 2 were used to frontal affinity chromatography (FAC) analysis. PA sugars were purchased from TAKARA BIO INC., SEIKAGAKU BIOBUSINESS CORPORATION, and Masuda Chemical Industries co., LTD. PA sugar were also obtained by pyridylaminating, by GlycoTAG®(TAKARA BIO INC.), an unlabeled sugar chain or a sugar chain obtained by subjecting a sugar chain to enzyme digestion for example.
Lectin was dissolved in 0.2 M NaHCO3 buffer solution (pH 8.3) including 0.5 M NaCl and coupled to the NHS-activated sepharose (GE Healthcare Bioscience) by following the manufacturer's instructions. Then, lectin immobilized sepharose was suspended in 10 mM Tris buffer (pH 7.4, TBS) including […] and the resultant matter was filled in a miniature column (φ2 mm×10 mm, 31.4 μl).
Frontal affinity chromatography was performed using FAC automatic analysis apparatus (FAC-1, SHIMADZU CORPORATION). In particular, the above-prepared lectin column was inserted to a stainless steel holder and the holder was connected to FAC-1 apparatus. The flow rate and the column temperature were maintained at 0.125 ml/min and 25 degrees C., respectively. After the miniature column was equilibrated by the TBS, an excessive volume (0.5 ml to 4 ml) of a PA sugar chain (3.75 nM or 7.5 nM) was continuously inputted to the column using an automatic sampling apparatus.
The fluorescent strength of the eluate of the PA sugar (excitation wavelength of 310 nm and fluorescence wavelength of 380 nm) was monitored to measure the interaction strength [a difference of the front end eluate to the standard oligosaccharide (PA rhamnose): V−V0]. […]

Row | Substance | association constant Ka (Sugar chain No. 015) | association constant Ka (Sugar chain No. 201) | association constant Ka (Sugar chain No. 202) | association constant Ka (Sugar chain No. 203) | association constant Ka (Sugar chain No. 401) | association constant Ka (Sugar chain No. 402) | association constant Ka (Sugar chain No. 403) | association constant Ka (Sugar chain No. 404) | association constant Ka (Sugar chain No. 405) | association constant Ka (Sugar chain No. 406) | association constant Ka (Sugar chain No. 407) | association constant Ka (Sugar chain No. 410) | association constant Ka (Sugar chain No. 413) | association constant Ka (Sugar chain No. 418) | association constant Ka (Sugar chain No. 601) | association constant Ka (Sugar chain No. 602)
1 | Stropharia rugosoannulata lectin [SRL, novel L-fucose α1→6 specific lectin purified from the mushroom Stropharia rugosoannulata] | 49000 M⁻¹ | 64000 M⁻¹ | 61000 M⁻¹ | 52000 M⁻¹ | 57000 M⁻¹ | 44000 M⁻¹ | 56000 M⁻¹ | 58000 M⁻¹ | 54000 M⁻¹ | 38000 M⁻¹ | 10000 M⁻¹ | 39000 M⁻¹ | 10000 M⁻¹ | 4300 M⁻¹ | 10000 M⁻¹ | 32000 M⁻¹
2 | Naematoloma sublateritium lectin [NSL] | 36000 M⁻¹ | 38000 M⁻¹ | 39000 M⁻¹ | 30000 M⁻¹ | 51000 M⁻¹ | 36000 M⁻¹ | 52000 M⁻¹ | 43000 M⁻¹ | 50000 M⁻¹ | 23000 M⁻¹ |  | 31000 M⁻¹ |  | 35000 M⁻¹ |  | 19000 M⁻¹
3 | Aspergillus oryzae lectin [AOL, reference compound] | 130000 M⁻¹ | 120000 M⁻¹ | 120000 M⁻¹ | 130000 M⁻¹ | 140000 M⁻¹ | 160000 M⁻¹ | 130000 M⁻¹ | 150000 M⁻¹ | 130000 M⁻¹ | 110000 M⁻¹ | 110000 M⁻¹ | 100000 M⁻¹ | 79000 M⁻¹ | 63000 M⁻¹ | 140000 M⁻¹ | 140000 M⁻¹
